Data: PubChem BioAssay (NCI)
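Protocol summary: plate cells (96-well), add compound at 5 concentrations, incubate 48 h, interpolate endpoints linearly. At the GI50, growth is halved. The concentration for full growth arrest is given as TGI.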

Columns and labels:
Test in all cases: NCI tumour cell line growth inhibition, 48 h
HL-60(TB) leukemia = tested on: HL-60(TB) leukemia
RPMI-8226 leukemia = tested on: RPMI-8226 leukemia
NCI-H226 lung = tested on: NCI-H226 lung
UO-31 renal = tested on: UO-31 renal
786-0 renal = tested on: 786-0 renal
HOP-62 NSCLC = tested on: HOP-62 NSCLC
HCT-15 colon = tested on: HCT-15 colon
HOP-92 NSCLC = tested on: HOP-92 NSCLC
DU-145 prostate = tested on: DU-145 prostate
MALME-3M melanoma = tested on: MALME-3M melanoma
A549 NSCLC = tested on: A549 NSCLC
PC-3 prostate = tested on: PC-3 prostate
MDA-MB-231 breast = tested on: MDA-MB-231 breast
K-562 leukemia = tested on: K-562 leukemia
ACHN renal = tested on: ACHN renal
CAKI-1 renal = tested on: CAKI-1 renal
SK-MEL-2 melanoma = tested on: SK-MEL-2 melanoma
RXF 393 renal = tested on: RXF 393 renal
SN12C renal = tested on: SN12C renal
MDA-MB-468 breast = tested on: MDA-MB-468 breast
OVCAR-5 ovarian = tested on: OVCAR-5 ovarian
SF-539 CNS = tested on: SF-539 CNS
SK-MEL-5 melanoma = tested on: SK-MEL-5 melanoma
LOX IMVI melanoma = tested on: LOX IMVI melanoma
MCF7 breast = tested on: MCF7 breast
UACC-62 melanoma = tested on: UACC-62 melanoma
SK-OV-3 ovarian = tested on: SK-OV-3 ovarian
M14 melanoma = tested on: M14 melanoma
NCI-H23 lung = tested on: NCI-H23 lung
HS 578T breast = tested on: HS 578T breast
T-47D breast = tested on: T-47D breast
OVCAR-4 ovarian = tested on: OVCAR-4 ovarian
HCT-116 colon = tested on: HCT-116 colon
SF-268 CNS = tested on: SF-268 CNS
SK-MEL-28 melanoma = tested on: SK-MEL-28 melanoma
EKVX NSCLC = tested on: EKVX NSCLC
COLO 205 colon = tested on: COLO 205 colon
UACC-257 melanoma = tested on: UACC-257 melanoma
A498 renal = tested on: A498 renal
SNB-75 CNS = tested on: SNB-75 CNS
IGROV1 ovarian = tested on: IGROV1 ovarian
SF-295 CNS = tested on: SF-295 CNS
NCI/ADR-RES ovarian = tested on: NCI/ADR-RES ovarian
NCI-H522 lung = tested on: NCI-H522 lung
TK-10 renal = tested on: TK-10 renal
SNB-19 CNS = tested on: SNB-19 CNS
BT-549 breast = tested on: BT-549 breast
HCC-2998 colon = tested on: HCC-2998 colon

`COc1ccc2c(c1)c(-c1cc3nc(-c4cn(C)c5ncc(Br)cc45)cc(N)n3n1)cn2C` was tested, and the GI50 (HL-60(TB) leukemia) was 2.07 µM, the TGI (HL-60(TB) leukemia) was 5.39 µM and the GI50 (RPMI-8226 leukemia) was 3.32 µM. It also gave a TGI (RPMI-8226 leukemia) greater than 100 µM, a GI50 (NCI-H226 lung) of 4.19 µM and a TGI (NCI-H226 lung) of 20.1 µM. For the same molecule, the GI50 (UO-31 renal) was 1.78 µM, the TGI (UO-31 renal) was 4.41 µM and the GI50 (786-0 renal) was 1.73 µM. For the same molecule, the TGI (786-0 renal) was 3.16 µM, the GI50 (HOP-62 NSCLC) was 2.09 µM and the TGI (HOP-62 NSCLC) was 5.98 µM. For the same molecule, the GI50 (HCT-15 colon) was 1.48 µM, the TGI (HCT-15 colon) was 3.54 µM and the GI50 (HOP-92 NSCLC) was 2.05 µM. It also gave a TGI (HOP-92 NSCLC) of 4.24 µM, a GI50 (DU-145 prostate) of 2.79 µM and a TGI (DU-145 prostate) of 8.15 µM. For the same molecule, the GI50 (MALME-3M melanoma) was 1.92 µM, the TGI (MALME-3M melanoma) was 3.47 µM and the GI50 (A549 NSCLC) was 2.31 µM. For the same molecule, the TGI (A549 NSCLC) was 9.05 µM, the GI50 (PC-3 prostate) was 2.45 µM and the TGI (PC-3 prostate) was greater than 100 µM. For the same molecule, the GI50 (MDA-MB-231 breast) was 1.62 µM, the TGI (MDA-MB-231 breast) was 3.28 µM and the GI50 (K-562 leukemia) was 3.17 µM. The TGI (K-562 leukemia) was greater than 100 µM, the GI50 (ACHN renal) was 1.5 µM and the TGI (ACHN renal) was 3.15 µM. The GI50 (CAKI-1 renal) was 1.48 µM, the TGI (CAKI-1 renal) was 3.3 µM and the GI50 (SK-MEL-2 melanoma) was 2.07 µM. The TGI (SK-MEL-2 melanoma) was 4.84 µM, the GI50 (RXF 393 renal) was 1.96 µM and the TGI (RXF 393 renal) was 3.57 µM. For the same molecule, the GI50 (SN12C renal) was 2.11 µM, the TGI (SN12C renal) was 6.03 µM and the GI50 (MDA-MB-468 breast) was 1.32 µM. The TGI (MDA-MB-468 breast) was 2.82 µM, the GI50 (OVCAR-5 ovarian) was 1.63 µM and the TGI (OVCAR-5 ovarian) was 3.96 µM. It also gave a GI50 (SF-539 CNS) of 1.67 µM, a TGI (SF-539 CNS) of 3.13 µM and a GI50 (SK-MEL-5 melanoma) of 3.27 µM. The TGI (SK-MEL-5 melanoma) was 12.1 µM, the GI50 (LOX IMVI melanoma) was 1.53 µM and the TGI (LOX IMVI melanoma) was 2.89 µM. For the same molecule, the GI50 (MCF7 breast) was 1.77 µM, the TGI (MCF7 breast) was 3.72 µM and the GI50 (UACC-62 melanoma) was 1.56 µM. For the same molecule, the TGI (UACC-62 melanoma) was 3.1 µM, the GI50 (SK-OV-3 ovarian) was 2.41 µM and the TGI (SK-OV-3 ovarian) was 6.25 µM. The GI50 (M14 melanoma) was 1.66 µM, the TGI (M14 melanoma) was 3.23 µM and the GI50 (NCI-H23 lung) was 2.25 µM. It also gave a TGI (NCI-H23 lung) of 6.77 µM, a GI50 (HS 578T breast) of 2.29 µM and a TGI (HS 578T breast) of 6.47 µM. The GI50 (T-47D breast) was 1.66 µM, the TGI (T-47D breast) was 3.68 µM and the GI50 (OVCAR-4 ovarian) was 2.13 µM. It also gave a TGI (OVCAR-4 ovarian) of 5.17 µM, a GI50 (HCT-116 colon) of 1.66 µM and a TGI (HCT-116 colon) of 3.04 µM. For the same molecule, the GI50 (SF-268 CNS) was 2.3 µM, the TGI (SF-268 CNS) was 6.14 µM and the GI50 (SK-MEL-28 melanoma) was 1.61 µM. The TGI (SK-MEL-28 melanoma) was 3.02 µM, the GI50 (EKVX NSCLC) was 1.48 µM and the TGI (EKVX NSCLC) was 3.39 µM. For the same molecule, the GI50 (COLO 205 colon) was 1.81 µM, the TGI (COLO 205 colon) was 3.44 µM and the GI50 (UACC-257 melanoma) was 1.79 µM. The TGI (UACC-257 melanoma) was 3.72 µM, the GI50 (A498 renal) was 2.18 µM and the TGI (A498 renal) was 7.22 µM. The GI50 (SNB-75 CNS) was 1.66 µM, the TGI (SNB-75 CNS) was 4.58 µM and the GI50 (IGROV1 ovarian) was 2.04 µM. The TGI (IGROV1 ovarian) was 4.54 µM, the GI50 (SF-295 CNS) was 1.77 µM and the TGI (SF-295 CNS) was 3.65 µM. It also gave a GI50 (NCI/ADR-RES ovarian) of 2.28 µM, a TGI (NCI/ADR-RES ovarian) of 5.62 µM and a GI50 (NCI-H522 lung) of 1.87 µM. The TGI (NCI-H522 lung) was 3.9 µM, the GI50 (TK-10 renal) was 2.36 µM and the TGI (TK-10 renal) was 6.69 µM. It also gave a GI50 (SNB-19 CNS) of 2.25 µM, a TGI (SNB-19 CNS) of 5.58 µM and a GI50 (BT-549 breast) of 2.12 µM. It also gave a TGI (BT-549 breast) of 4.49 µM, a GI50 (HCC-2998 colon) of 1.66 µM and a TGI (HCC-2998 colon) of 3.16 µM.
